Results on 15 compounds are retold here after patent US20080096950A1, “Compounds Useful In Therapy” (priority 2006, published 2008).

SMILES strings stand for the structures. pIC50: −log10 of the molar value.

The assay addresses T1, Progesterone receptor (PR) (Homo sapiens, UniProt P06401).
T1 construct: endogenous in cells; host or cells: T47D human breast mammary carcinoma cells
T1 sequence (P06401 1-933): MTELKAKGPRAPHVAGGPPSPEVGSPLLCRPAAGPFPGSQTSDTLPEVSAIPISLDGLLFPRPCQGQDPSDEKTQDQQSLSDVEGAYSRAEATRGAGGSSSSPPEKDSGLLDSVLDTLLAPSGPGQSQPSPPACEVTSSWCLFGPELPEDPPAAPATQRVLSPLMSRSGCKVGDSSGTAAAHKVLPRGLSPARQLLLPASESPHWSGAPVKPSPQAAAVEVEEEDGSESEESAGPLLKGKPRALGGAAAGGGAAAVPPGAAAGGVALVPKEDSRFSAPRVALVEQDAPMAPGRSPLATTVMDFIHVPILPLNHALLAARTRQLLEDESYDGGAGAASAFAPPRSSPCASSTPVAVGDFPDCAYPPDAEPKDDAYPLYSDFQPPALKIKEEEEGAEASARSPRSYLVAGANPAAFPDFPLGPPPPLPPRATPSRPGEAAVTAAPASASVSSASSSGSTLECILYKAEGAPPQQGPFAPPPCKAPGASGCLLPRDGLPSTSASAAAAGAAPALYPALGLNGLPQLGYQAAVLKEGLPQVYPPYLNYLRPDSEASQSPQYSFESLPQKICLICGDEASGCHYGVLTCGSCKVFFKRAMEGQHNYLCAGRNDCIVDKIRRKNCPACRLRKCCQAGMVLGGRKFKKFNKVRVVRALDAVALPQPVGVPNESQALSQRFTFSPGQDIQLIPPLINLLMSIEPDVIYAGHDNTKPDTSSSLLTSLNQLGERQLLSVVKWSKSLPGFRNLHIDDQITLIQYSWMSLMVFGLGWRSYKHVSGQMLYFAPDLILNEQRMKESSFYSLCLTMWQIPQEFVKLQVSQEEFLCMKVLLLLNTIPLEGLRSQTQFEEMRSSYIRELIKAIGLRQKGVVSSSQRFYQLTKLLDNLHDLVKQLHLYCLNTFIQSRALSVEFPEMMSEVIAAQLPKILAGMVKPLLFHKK
Description: In vitro functional assay for progesterone receptor (PR) antagonists: inhibition of progesterone-induced alkaline phosphatase expression in T47D cells. Type of assay: cell-based. To be noted: antagonist format; T47D human mammary carcinoma cells; alkaline phosphatase inhibition vs 5 nM progesterone. An excerpt: 1.0 In Vitro Functional Assay for Progesterone Receptor (PR) Antagonists, Agonists and Modulators
The assay for PR antagonism takes advantage of the extensively reported modulation of alkaline phosphatase (AP) expression in human breast T47D mammary carcinoma cells {Beck, et al., D. P. (1993). The progesterone antagonist RU486 acquires agonist activity upon stimulation of cAMP signalling pathways. Proc Natl Acad Sci U S A 90, 4441-4445; Fensome, et al. (2002). New progesterone receptor antagonists: 3,3-disubstituted-5-aryloxindoles. Bioorg. Med. Chem. Lett., 12, 3487-3490; Zhang et al., (2002a). 6-Aryl-1,4-dihydro-benzo d 1,3 oxazin-2-ones: a novel class of potent, selective, and orally active nonsteroidal progesterone receptor antagonists. J. Med. Chem., 45, 4379-4382; Zhang et al., (2003). Novel 6-aryl-1,4-dihydrobenzo d oxazine-2-thiones as potent, selective, and orally active nonsteroidal progesterone receptor agonists. Bioorg. Med. Chem. Lett., 13, 1313-1316; Zhang et al., (2002b). Potent nonsteroidal progesterone receptor agonists: synthesis and SAR study of 6-aryl benzoxazines. Bioorg. Med. Chem. Lett., 12, 787-790; Zhang, Z. et al., (2000). In vitro characterization of trimegestone: a new potent and selective progestin. Steroids 65, 637-643.}. […] In the absence of progesterone any agonist activity is also observed as an induction of AP activity. By running the assay in two formats (± progesterone (P4)), compounds behaving as PR antagonists, agonists, partial agonists or modulators with mixed agonist/antagonist activity can be identified.
Briefly, T47D cells are grown by propagating in DMEM with phenol red+10% FCS+2 mM Glutamine at 37° C./5% CO2. At 70-80% confluence, the media is exchanged for phenol red free DMEM+5% CS-FCS (Assay media). Cells are incubated overnight in assay media then harvested and frozen in assay media containing 10% DMSO at 1.5e7 cells/mL in 2 mL aliquots using a Planer and immediately stored in liquid nitrogen. V1als are removed from liquid nitrogen storage and immediately thawed in a water bath at 37° C. The cell suspension is added dropwise to 20 mL of assay media, then the tube centrifuged at 1000 rpm for 4 minutes, the supernatant is discarded and the pellet re-suspended in 20 mL assay media. T47D cells are then plated at 8750 cells/well in 35 μL assay media in sufficient white solid 384 well TC plates for the assay. For the agonist format assay a further 10 μL of assay media is added to each well. These plates are then cultured for 3-6 hours at 37° C./5% CO2 before compound addition.
Compounds are prepared by in 100% DMSO, half log concentrations from 4 mM in 384 well plates 5 μL/well (referred to here as ‘grandmother plates’). Progesterone is 100 μM made up in ethanol and PBS (i.e. add 1 mL ethanol to progesterone initially to help dissolving) and stored in 0.5-1 mL aliquots at −20° C.
Using a multidrop (Thermolabsystems), 60 μL/well of buffer is added to a 384 well plate—this will be the ‘mother plate’. Add 45 μLwell buffer to grandmother plate using the multidrop (=400 μM 10% DMSO dilution). Mixed and spun to remove air bubbles.
20 μL is taken from the grandmother plate (400 μM 10% DMSO) and added to the mother plate (=100 μM 2.5% DMSO). Mixed and spun to remove air bubbles
The PlateMate Plus was used to add 5 μL MAX/MIN to cell plates
Then 5 μL compounds are added from the mother plate(after removing max/min Platemate tips: columns 1 and 24)
25 nM progesterone in assay media is prepared from 100 μM stock (12.5 μL progesterone/50 mL media), from which 10 μL per well is transferred to the assay plate using the Platemate Plus (already containing cells & compound).
The cell plates are incubated @ 37° C., 5% CO2 overnight (at least 16 hours). […]
The compound `Cc1cc(Oc2c(C3CC3)nn(C3CCS(=O)(=O)C3)c2C2CC2)cc(C)c1C#N` (racemic) [Example 7, rac-4-[3,5-Dicyclopropyl-1-(1,1-dioxo-tetrahydro-1λ^6-thiophen-3-yl)-1H-pyrazol-4-yloxy]-2,6-dimethyl-benzonitrile] gave a pIC50 of 7.86. As to `Cc1cc(Oc2c(C)nn(C3CCS(=O)(=O)C3)c2C2CCC2)cc(C)c1C#N` (racemic) [Example 12, rac-4-[5-Cyclobutyl-1-(1,1-dioxo-tetrahydro-1λ^6-thiophen-3-yl)-3-methyl-1H-pyrazol-4-yloxy]-2,6-dimethyl-benzonitrile], the pIC50 was 5.83. Under `Cc1cc(Oc2c(C3CCC3)nn(C3CCS(=O)(=O)C3)c2C)cc(C)c1C#N` (racemic) [Example 13, rac-4-[3-Cyclobutyl-1-(1,1-dioxo-tetrahydro-1λ^6-thiophen-3-yl)-5-methyl-1H-pyrazol-4-yloxy]-2,6-dimethyl-benzonitrile] stands 6.69; under `Cc1cc(Oc2c(C)nn(C3CCS(=O)(=O)C3)c2C2CC2)cc(C)c1C#N` (racemic) [Example 14, rac-4-[5-Cyclopropyl-1-(1,1-dioxo-tetrahydro-1λ^6-thiophen-3-yl)-3-methyl-1H-pyrazol-4-yloxy]-2,6-dimethyl-benzonitrile], 6.88. Under `Cc1cc(Oc2c(C3CC3)nn(C3CCS(=O)(=O)C3)c2C2CC2)cc(C)c1C#N` (single isomer, unassigned) [Example 8, 4-[3,5-Dicyclopropyl-1-(1,1-dioxo-tetrahydro-1λ^6-thiophen-3-yl)-1H-pyrazol-4-yloxy]-2,6-dimethyl-benzonitrile] stands 7.47. To `Cc1cc(Oc2c(C3CC3)nn(C3CCS(=O)(=O)C3)c2C2CC2)cc(C)c1C#N` (single isomer, unassigned) [Example 9, 4-[3,5-Dicyclopropyl-1-(1,1-dioxo-tetrahydro-1λ^6*-thiophen-3-yl)-1H-pyrazol-4-yloxy]-2,6-dimethyl-benzonitrile] belongs 7.59; to `Cc1cc(Oc2c(C3CC3)nn(C3COC3)c2C2CC2)cc(C)c1C#N` [Example 1, 4-(3,5-Dicyclopropyl-1-oxetan-3-yl-1H-pyrazol-4-yloxy)-2,6-dimethyl-benzonitrile], 7.08; to `Cc1cc(Oc2c(C3CC3)nn(C3CS(=O)(=O)C3)c2C2CC2)cc(C)c1C#N` [Example 2, 4-[3,5-Dicyclopropyl-1-(1,1-dioxo-thietan-3-yl)-1H-pyrazol-4-yloxy]-2,6-dimethyl-benzonitrile], 7.83. `Cc1cc(Oc2c(C3CC3)nn(C3CCOC3)c2C2CC2)cc(C)c1C#N` (stereo not drawn) [Example 3, 4-[3,5-Dicyclopropyl-1-(tetrahydro-furan-3-yl)-1 H-pyrazol-4-yloxy]-2,6-dimethyl-benzonitrile] gave a pIC50 of 7.17.

Regarding `Cc1cc(Oc2c(C3CC3)nn(C3CCS(=O)(=O)CC3)c2C2CC2)cc(C)c1C#N` [Example 5, 4-[3,5-Dicyclopropyl-1-(1,1-dioxo-hexahydro-1 λ^6-thiopyran-4-yl)-1H-pyrazol-4-yloxy]-2,6-dimethyl-benzonitrile], the pIC50 is 7.04. As to `Cc1cc(Oc2c(C3CC3)nn(C3CCOCC3)c2C2CC2)cc(C)c1C#N` [Example 6, 4-[3,5-Dicyclopropyl-1-(tetrahydro-pyran-4-yl)-1H-pyrazol-4-yloxy]-2,6-dimethyl-benzonitrile], the pIC50 is 7.25. This pIC50 is 0.21 log units higher than that of the compound before.

As for `Cc1cc(Oc2c(C3CC3)nn(C3CS(=O)(=O)C3)c2C)cc(C)c1C#N` [Example 10, 4-(3-Cyclopropyl-5-methyl-1-(1,1-dioxo-thietan-3-yl)-1H-pyrazol-4-yloxy)-2,6-dimethyl-benzonitrile], the pIC50 was 7.56. With `Cc1cc(Oc2c(C)nn(C3CS(=O)(=O)C3)c2C2CC2)cc(C)c1C#N` [Example 11, 4-(3-Methyl-5-cyclopropyl-1-(1,1-dioxo-thietan-3-yl)-1H-pyrazol-4-yloxy)-2,6-dimethyl-benzonitrile], the pIC50 was 7.30. Against the preceding compound, the pIC50 is 0.26 log units lower.

Turning to `Cc1cc(Oc2c(C3CC3)nn(C3CS(=O)(=O)C3)c2Cl)cc(C)c1C#N` [Example 20, 4-[5-Chloro-3-cyclopropyl-1-(1,1-dioxo-1λ^6-thietan-3-yl)-1H-pyrazol-4-yloxy]-2,6-dimethyl-benzonitrile], the pIC50 was 7.66. To `Cc1cc(Oc2c(Cl)nn(C3CS(=O)(=O)C3)c2C2CC2)cc(C)c1C#N` [Example 21, 4-[3-Chloro-5-cyclopropyl-1-(1,1-dioxo-1λ^6-thietan-3-yl)-1H-pyrazol-4-yloxy]-2,6-dimethyl-benzonitrile] belongs 6.97.
